Experimental data as given in PubChem BioAssay (NCI).
Where “and” joins values, the source holds several entries; their conditions need not be identical. Identical values can stand only once.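 Five concentrations, 48 hours, 96-well plates. Here, GI50 denotes the concentration required for 50% inhibition of growth. TGI: total growth inhibition.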

What follows are molecules tested on EKVX NSCLC (assay: growth of human tumour cells (NCI), 48 h).

Row | SMILES | TGI [µM] | GI50
1 | Cn1cnc([N+](=O)[O-])c1[Se]c1nc(N)nc2c1ncn2C1OC(CO)C(O)C1O (configuration not stated) | > 100 | –
2 | C=C(C)C1CCC2(C(=O)O)CCC3(C)C(CCC4C5(C)CCC(OC(=O)NCc6ccccc6)C(C)(C)C5CCC43C)C12 (configuration not stated) | > 100 | 1.71 µM
3 | Clc1ccc(-c2c(C3=NCCCN3)nnn2-c2ccc(Cl)cc2)cc1 | > 100 | –
4 | C=C[C@H]1C[C@@H]2C[C@@H]3[C@H]4C/C=C\C(=O)NCCCC5NC(=O)C(=C(O)/C=C/[C@@H]4CC(=O)[C@H]3[C@@H]2[C@H]1C)C5=O (some centres not stated) | 2.54 | 1.13 µM
5 | Cc1ccc(C(=O)Nc2ccc(CN3CCN(C)CC3)c(C(F)(F)F)c2)cc1C#Cc1cnc(N)c2ccccc12 | 1.28 | 0.514 µM
6 | C=C1CC[C@@H]2[C@](C)(COC(C)=O)[C@H](OC(C)=O)CC[C@@]2(C)[C@@H]1CC(Nc1ccc(S(=O)(=O)Nc2ncccn2)cc1)C1=CCOC1=O (some centres not stated) | 20.6 | 8.18 µM
7 | Cn1c2ccccc2c2c3[nH]c(=O)[nH]c(=O)c3c3c4ccccc4n(C)c3c21 | 47.2 | 2.54 µM
8 | O=C1/C(=C/c2ccc(O)cc2)CSc2ccc(Cl)cc21 | 32.4 | 16.4 µM
9 | Fc1ccc(-c2nn3ncccc3c2-c2ccnc(Nc3ccc4c(c3)OCCO4)n2)cc1 | > 25 | 2.16 µM
10 | CC1(C)N=C(N)N=C(N)N1c1ccc(OCc2ccc(S(=O)(=O)F)c(Cl)c2)c(Cl)c1 | > 100 | > 100 µM
11 | CO[C@H]1C=C[C@@]23c4cc5c(cc4CO[C@]2(O)CN(C)[C@H]3C1)OCO5 | > 100 | –
12 | COC(=O)c1c(C)[nH]c(/C=C2\N=C(c3ccc[nH]3)C=C2OC)c1C | 3.28 | 1.07 µM
13 | COc1cc2c3c(n(CCCCOC(=O)C(Cl)(Cl)Cl)c(=O)c2cc1OC)-c1cc2c(cc1C3=O)OCO2 | > 100 | > 100 µM
14 | CCOC(=O)c1c(C)nc2c(c1N)/C(=C/c1ccc(OC)cc1)C(=O)N2Cc1ccc(F)cc1 | 2.26 | 0.27 µM
15 | C/C(=N\Nc1ccc(Cl)cn1)c1ccccn1 | > 83.7 | 0.0516 µM
16 | COc1cc(NS(=O)(=O)c2ccc(-c3cnc(C4CC4)o3)cc2)ccc1F | 95.5 | 1.13 µM
17 | CC(C)CCCC(=O)CCCCCCC(=O)CCN(O)C(=O)C(N)CO (configuration not stated) | 27.5 | –
18 | Cc1ccc(NC(=O)NCCCOc2ccc(N3C(N)=NC(N)=NC3(C)C)cc2Cl)cc1S(=O)(=O)F | > 100 | 10.9 µM
19 | CC[CH2][Sn]([Cl])([Cl])[CH2]CC.Oc1ccccc1C=NCCN=Cc1ccccc1O | 27.3 | 12.9 µM
20 | COc1ccccc1Cn1cc2c(c1-c1ccccc1)CCc1cnoc1-2 | > 100 | 2.76 µM
21 | COc1cc2c(c(OC)c1OC)C(=O)[C@@H]1c3ccc([N+](=O)[O-])cc3C(=O)N(CCCBr)[C@H]21 | 61.6 | 12.7 µM
22 | Nc1ncn(C2CC(O)C(CO)O2)c(=O)n1 (configuration not stated) | > 293 | –
23 | C/C=C(\C)CC/C=C/CO[Si](C)(C)C(C)(C)C | > 100 | –
24 | COc1cc2c3c(n(C)c(=O)c2cc1OC)-c1cc2c(cc1/C3=C\CNCCCN)OCO2 | 12.2 | 2.85 µM
25 | O=C(/C=C\n1cnc(-c2cc(C(F)(F)F)cc(C(F)(F)F)c2)n1)NNc1cnccn1 | 14.5 | 0.0853 µM
26 | NCCCn1c2c(c3ccc([N+](=O)[O-])cc3c1=O)C(=O)c1cc(Br)ccc1-2 | 0.223 | 0.0757 µM and 0.0501 µM
27 | CN1C(=O)c2ccccc2NC(=O)C12O[C@@H]2c1cccc(O)c1 (some centres not stated) | > 100 | –

The molecules below were run on MDA-MB-231 breast (assay: growth of human tumour cells (NCI), 48 h).

Row | SMILES | TGI [µM] | GI50 [µM]
28 | Cn1cnc([N+](=O)[O-])c1[Se]c1nc(N)nc2c1ncn2C1OC(CO)C(O)C1O (configuration not stated) | > 100 | –
29 | C=C(C)C1CCC2(C(=O)O)CCC3(C)C(CCC4C5(C)CCC(OC(=O)NCc6ccccc6)C(C)(C)C5CCC43C)C12 (configuration not stated) | 54.3 | 5.69
30 | Clc1ccc(-c2c(C3=NCCCN3)nnn2-c2ccc(Cl)cc2)cc1 | > 77.7 | –
31 | C=C[C@H]1C[C@@H]2C[C@@H]3[C@H]4C/C=C\C(=O)NCCCC5NC(=O)C(=C(O)/C=C/[C@@H]4CC(=O)[C@H]3[C@@H]2[C@H]1C)C5=O (some centres not stated) | 0.537 | 0.232
32 | Cc1ccc(C(=O)Nc2ccc(CN3CCN(C)CC3)c(C(F)(F)F)c2)cc1C#Cc1cnc(N)c2ccccc12 | 1.22 | 0.519
33 | C=C1CC[C@@H]2[C@](C)(COC(C)=O)[C@H](OC(C)=O)CC[C@@]2(C)[C@@H]1CC(Nc1ccc(S(=O)(=O)Nc2ncccn2)cc1)C1=CCOC1=O (some centres not stated) | 3.93 | 1.95
